{"source": "patent US11753388B2", "about": "“Composition for inhibiting alpha-glucosidase and application thereof” (ZHENGZHOU FRUIT RESEARCH INSTITUTE, CHINESE ACADEMY OF …, priority 2021, dated 2023)", "system": "α-glucosidase", "experiment": "in vitro α-glucosidase inhibition test (pNPG substrate, OD 405 nm); combination index by Chou-Talalay method with CompuSyn", "type": "biochemical, Saccharomyces cerevisiae", "details": "single compound", "experimental": "α-glucosidase (coming from Saccharomyces cerevisiae, Sigma);\nan α-glucosidase solution with a concentration being 0.25 U/mL and a substrate p-nitrophenyl-α-D-glucopyranoside (pNPG) solution with a concentration being […] were prepared by using a PBS buffer solution (0.1 mol L−1 pH 6.8).\n40 μL α-glucosidase solution was accurately removed, 100 μL of sample solution to be tested was added respectively, reacted for 10 min at 37° C., then 60 μL of substrate p-nitrophenyl-α-D-glucopyranoside (pNPG) solution was added, reacted for 15 min at 37° C., and an enzyme-linked analyzer measured at a wavelength of 405 nm.\nFirst, daidzein, taxifolin, and 3-O-methyl quercetin were respectively prepared into 10 mg/mL mother solutions by using dimethyl sulfoxide (DMSO); and then a sample solution of the specific concentration of the daidzein, taxifolin, and 3-O-methyl quercetin and composition was prepared with PBS buffer solution."}
{"compound": "O=c1c(O)c(-c2ccc(O)cc2)oc2cc(O)cc(O)c12", "note": "[Kaempferol]", "values": [{"measurement": "Inhibition rate", "setting": "2.5 μg/mL", "result": "40.83 ± 2.3", "unit": "%"}]}
{"compound": "O=c1cc(-c2ccc(O)c(O)c2)oc2cc(O)cc(O)c12", "note": "[Luteolin]", "values": [{"measurement": "Inhibition rate", "setting": "1 μg/mL", "result": "45.5 ± 2.7", "unit": "%"}]}
{"compound": "COc1ccc(-c2coc3cc(O)ccc3c2=O)cc1", "note": "[Formononetin]", "values": [{"measurement": "Inhibition rate", "setting": "20 μg/mL", "result": "60.07 ± 5.3", "unit": "%"}]}
{"compound": "COc1ccc(-c2oc3cc(O)cc(O)c3c(=O)c2O)cc1", "note": "[Kaempferide]", "values": [{"measurement": "Inhibition rate", "setting": "5 μg/mL", "result": "30.8 ± 1.3", "unit": "%"}]}
{"compound": "Herbacetin", "values": [{"measurement": "Inhibition rate", "setting": "2.5 μg/mL", "result": "35.2 ± 1.2", "unit": "%"}]}
{"compound": "O=C1c2c(O)cc(O)cc2OC(c2ccc(O)cc2O)C1O", "note": "(stereo not shown) [Dihydromorin]", "values": [{"measurement": "Inhibition rate", "setting": "15 μg/mL", "result": "25.7 ± 4.7", "unit": "%"}]}
{"compound": "COc1ccc(C2CC(=O)c3c(O)cc(O)cc3O2)cc1O", "note": "(stereo not shown) [Hesperetin]", "values": [{"measurement": "Inhibition rate", "setting": "30 μg/mL", "result": "45.2 ± 3.2", "unit": "%"}]}
{"compound": "Chrysin", "values": [{"measurement": "Inhibition rate", "setting": "100 μg/mL", "result": "51.2 ± 5.5", "unit": "%"}]}
{"compound": "Oc1cc(O)c2cc(O)c(-c3ccc(O)c(O)c3)[o+]c2c1.[Cl-]", "note": "[Cyanidin]", "values": [{"measurement": "Inhibition rate", "setting": "0.7 μg/mL", "result": "47.5 ± 1.4", "unit": "%"}]}
{"compound": "O=c1c(O)c(-c2ccc(O)c(O)c2)oc2cc(O)ccc12", "note": "[Fisetin]", "values": [{"measurement": "Inhibition rate", "setting": "6 μg/mL", "result": "46.5 ± 2.3", "unit": "%"}]}
{"compound": "O=C(/C=C/c1ccc(O)cc1)c1ccc(O)cc1O", "note": "[Isoliquiritigenin]", "values": [{"measurement": "Inhibition rate", "setting": "4 μg/mL", "result": "35.2 ± 2.5", "unit": "%"}]}
{"compound": "COc1cc(O)c2c(=O)cc(-c3ccc(O)cc3)oc2c1", "note": "[Genkwanin]", "values": [{"measurement": "Inhibition rate", "setting": "35 μg/mL", "result": "70.12 ± 5.5", "unit": "%"}]}
{"compound": "COc1ccc(-c2coc3cc(O)cc(O)c3c2=O)cc1", "note": "[Biochanin A]", "values": [{"measurement": "Inhibition rate", "setting": "0.7 μg/mL", "result": "38.5 ± 2.1", "unit": "%"}]}
{"compound": "O=C(O[C@@H]1Cc2c(O)cc(O)cc2O[C@@H]1c1cc(O)c(O)c(O)c1)c1cc(O)c(O)c(O)c1", "note": "[Epigallocatechin gallate]", "values": [{"measurement": "Inhibition rate", "setting": "0.06 μg/mL", "result": "42.5 ± 3.5", "unit": "%"}]}
{"compound": "COc1c(-c2ccc(O)c(O)c2)oc2cc(O)cc(O)c2c1=O", "note": "[3-O-methyl quercetin, 3-O-Methyl Quercetin]", "values": [{"measurement": "Inhibition rate", "setting": "2 μg/mL", "result": "46.23±1.2", "unit": "%"}, {"measurement": "Inhibition rate", "setting": "4 μg/mL", "result": "53.52±3.2", "unit": "%"}, {"measurement": "Inhibition rate", "setting": "6 μg/mL", "result": "61.72±3.5", "unit": "%"}]}
{"compound": "O=c1c(-c2ccc(O)cc2)coc2cc(O)ccc12", "note": "[Daidzein]", "values": [{"measurement": "Inhibition rate", "setting": "8 μg/mL", "result": "44.5±2.5", "unit": "%"}, {"measurement": "Inhibition rate", "setting": "10 μg/mL", "result": "52.25±2.5", "unit": "%"}]}
{"compound": "O=c1c(O)c(-c2ccc(O)cc2O)oc2cc(O)cc(O)c12", "note": "[Morin]", "values": [{"measurement": "Inhibition rate", "setting": "1 μg/mL", "result": "41.2 ± 2.7", "unit": "%"}]}
{"compound": "O=C1c2c(O)cc(O)cc2O[C@H](c2ccc(O)c(O)c2)[C@H]1O", "note": "[Taxifolin]", "values": [{"measurement": "Inhibition rate", "setting": "25 μg/mL", "result": "40.12±2.1", "unit": "%"}, {"measurement": "Inhibition rate", "setting": "30 μg/mL", "result": "54.5±2.4", "unit": "%"}, {"measurement": "Inhibition rate", "setting": "50 μg/mL", "result": "75.21±3.4", "unit": "%"}]}
{"compound": "O=C(CCc1ccc(O)cc1)c1c(O)cc(O)cc1O", "note": "[Phloretin]", "values": [{"measurement": "Inhibition rate", "setting": "8 μg/mL", "result": "46.3 ± 2.7", "unit": "%"}]}
{"compound": "O=c1cc(-c2ccccc2)oc2cc(O)c(O)c(O)c12", "note": "[Baicalein]", "values": [{"measurement": "Inhibition rate", "setting": "10 μg/mL", "result": "38.8 ± 3.3", "unit": "%"}]}
{"compound": "Oc1cc(O)c2cc(O)c(-c3cc(O)c(O)c(O)c3)[o+]c2c1.[Cl-]", "note": "[Delphinidin]", "values": [{"measurement": "Inhibition rate", "setting": "1 μg/mL", "result": "50.2 ± 4.3", "unit": "%"}]}
{"compound": "O=c1c(O)c(-c2cc(O)c(O)c(O)c2)oc2cc(O)cc(O)c12", "note": "[Myricetin]", "values": [{"measurement": "Inhibition rate", "setting": "1 μg/mL", "result": "41.2 ± 1.5", "unit": "%"}]}
{"compound": "Vitexin", "values": [{"measurement": "Inhibition rate", "setting": "10 μg/mL", "result": "29.2 ± 1.4", "unit": "%"}]}
